Here are results for 1 compound from US20150051246A1 (priority 2013, published 2015).

For the assay, the system named is male C57BL/6NCrl mice. Description: Object Location Task (OLT), spatial memory, 24 h retention interval. The assay is classed as in vivo. Conditions: for d2 index, discrimination index for T2: 3 h after T1, 24 h interval. From the text: The objective of this study was to evaluate the cognitive improvement effects of Roflumilast on spatial memory employing Object Location Task (OLT) in male C57BL/6NCrl mice. Roflumilast was compared with data of the already established PDE4 inhibitor Rolipram in the same model.
Twenty-four 7 month-old male C57BL/6NCrl mice (Charles River, L'Arbresle, France) were used (average body weights: 27.6 g). The animals were kept under a 12/12-hour light/dark cycle (lights on from 07.00 pm to 07.00 am) with free access to food and water. All testing was done between 09.00 am and maximally 06.00 pm.
Both rolipram (Sigma-Aldrich St. Louis, USA; MW 275.34) and roflumilast (Biocrea, Radebeul, Germany; MW 403.21) were dissolved in dimethylsulfoxide (DMSO) and kept at 4° C.; this stock solution was used for further dilutions in 0.5% methylcellulose. Each of rolipram and roflumilast is used in form of its free base. All injected solutions consisted of 0.5% methylcellulose with a fixed DMSO percentages (1.2%) (vehicle).
For the Object Location Task (OLT), doses of 0.01 mg/kg, 0.03 mg/kg and 0.1 mg/kg of Rolipram or Roflumilast or vehicle were administered subcutaneously (s.c.). Based on previous findings, PDE4 inhibitor single administration was performed 3 hours after the first trial as this has an optimum effect on object memory performance. The injection volume was 5 μl/g.
The OLT apparatus consisted of a circular arena, 40 cm in diameter. Half of the 40 cm transparent polyvinyl chloride wall was covered from the outside with white paper. Two objects were placed symmetrically about 10 cm away from the wall on the separation line, between the transparent and covered side of the arena. Four different sets of objects were available: (1) a cone made of brass (maximal diameter 6 cm and total height 3.8 cm), (2) a transparent glass bottle (diameter 2.7 cm, height 8.5 cm) filled with sand and water, (3) a massive metal cube (2.5 cm×5 cm×7.5 cm) with two holes (diameter 1.5 cm), and (4) a massive aluminum cube with a tapering top (4.5 cm×4.5 cm×8.5 cm).
A testing session comprised two trials of 4 minutes. Before each trial, mice were placed in an empty Makrolon cage (incubation cage) for the same amount of time as the trial (4 min). During the first trial (T1), two identical objects were placed symmetrically about 10 cm away from the wall on the separation line between the transparent and covered side of the arena. After the first exploration period of 4 min, the mouse was put back in its home cage. Mice then received treatment at 3 hours post T1. Subsequently, after a predetermined delay interval (24 h), the mouse was placed in the apparatus for the second trial of 4 min (T2). Two identical objects as in T1 were used; one object was placed in the previously used position, whereas the other was placed in a novel position. The novel position of the object could either be a fixed distance towards the front or a fixed distance towards the back of the arena for both objects. The times spent exploring each object during T1 and T2 were recorded manually using a personal computer. All objects and locations were used in a balanced manner to exclude possible object and/or location preferences. To avoid olfactory cues, the objects were thoroughly cleaned with 70% ethanol after each trial. The testing order of conditions was determined randomly.
The measurements reflected the time spent by the mice in exploring each object during T1 and T2. The time spent in exploring the two identical samples in T1 were represented by ‘a1’ and ‘a2’, respectively. The time spent in exploring the sample and the new object in T2 were represented by ‘a’ and ‘b’, respectively. From these exploration times the following variables were calculated: e1, e2, and d2 (Table 1). The d2 index is a relative measure of discrimination corrected for exploratory activity. […]

With `O=C(Nc1c(Cl)cncc1Cl)c1ccc(OC(F)F)c(OCC2CC2)c1` [roflumilast, N-(3,5-dichloropyridin-4-yl)-3-cyclopropylmethoxy-4-difluoromethoxybenzamide], the “d2 index, discrimination index for T2” value reads like this: (0.01 mg/kg s.c.) 0.04; (0.03 mg/kg s.c.) 0.34; (0.1 mg/kg s.c.) 0.00. Moreover, the “dose effective in improving spatial memory” value (s.c.) stood at 0.03 mg/kg. The “effect on spatial memory (in words)” value (single subcutaneous 0.01 mg/kg) was “nearly no effect”, the “effect on spatial memory (in words)” value (single subcutaneous 0.03 mg/kg) is on record as “pronounced effect on spatial memory” and the “effect on spatial memory (in words)” value (single subcutaneous 0.1 mg/kg) was “completely no effect”.
